Reference: patent US20080255206A1, “Rxr Agonists and Antagonists, Alone or in Combination with Ppar Ligands, in the Treatment of Metabolic and Cardiovascular Diseases” (priority 2005, published 2008)

Experiments:
MMP-1 mRNA = MMP-1 mRNA in synovial fibroblasts (real time PCR); assay type: cell-based, human
Description: (§1) Furthermore, it is determined whether this is accompanied by a modulation in the accumulation of the mRNA encoding catabolic enzyme matrix metalloproteinase-1 (MMP-1), responsible for degradation of human cartilage and consequently joint destruction in man. Adherent synovial fluid cells taken from a patient with RA are used after 5 passages in an in vitro assay for cartilage destruction. The cells incubated in flasks coated with 0.1% (0.1 g/100 ml) human cartilage powder are fixed using Matrigel® (BD Biosciences, Becton, Dickinson & Co., Boston, Mass., USA).
This is conducted in the presence or absence of IL-1β (100 pg/ml).

[1] = tested on: human skin inflammation induced by topical 9-cis RA; assay: Therapeutic effect on 9-cis RA-induced human skin inflammation, clinical pilot trial; assay type: in vivo
Description: In the following pilot clinical trial on one healthy volunteer the compounds are applied epicutaneously. 9-cis RA being known for its skin inflammation potential is used in concentrations of 0.1%, 0.3% and 1%. Compound 15 (RXR antagonist) concentration is 1%. The compounds are solved in ethanol/propylene glycol (1:1). 9-cis RA is applied twice daily, 7 days a week, for two consecutive weeks. The site of application is an area of 3×3=9 cm^2 on the abdominal skin. The volume is 0.1 ml per administration. The treatment with compound 15, administered twice daily in a concentration of 1%, is started on day 15 when treatment with 9-cis RA is discontinued. This treatment lasts from day 15 to day 22. For a correct evaluation comparative areas with inflammation induced by 9-cis RA are treated with the vehicle, ethanol/propylene glycol, from day 15 to 22. The post-treatment period lasts until day 28.
The signs and symptoms of skin inflammation are recorded on a 0-4 scale, as described in example 21.
For evaluation of the anti-inflammatory effect of compound 15, the sum of the daily inflammation scores from day 15 to day 28 is determined, as well as the time to complete disappearance of skin inflammation from day 15 on.

synovial fibroblasts = assay: In vitro cartilage degradation by synovial fibroblasts (sGAG release); assay type: cell-based, human; conditions: for sGAG release: 14 days
Description: as §1, with “USA). The release of sulphated glycosaminoglycan (sGAG) into the culture medium is monitored by a commercial colorimetric test according to a method described by S. Björnsson, see Anal. […] This is conducted in the presence or absence of IL-1β (100 pg/ml).” for “USA).”

[2] = tested on: skin inflammation induced by topical 9-cis RA; assay: Preventive and therapeutic effect on 9-cis RA-induced skin inflammation, human volunteer study; assay type: in vivo
Description: In this pilot clinical trial on one healthy volunteer, the substance 9-cis RA and compound 15 are administered epicutaneously. The inflammation-inducing agent 9-cis RA is used in a concentration of 0.3%. The RXR antagonist compound 15 is applied in a concentration of 1%. The compounds are solved in ethanol/propylene glycol (1:1) and administered twice daily. The site of application is the abdominal skin, with various areas of 3×3=9 cm^2. Volume per application is 0.1 ml.
The following three clinical settings at different sites are chosen: • 1. Induction of skin inflammation by 9-cis RA 9-cis RA is administered as a 0.3% solution twice daily from day 1 to day 14. The vehicle is administered from day 15 to disappearance of skin inflammation. • 2. Prevention of 9-cis RA-induced skin inflammation by RXR antagonist Compound 15 9-cis RA solution of 0.3% is administered twice daily from day 1 to day 14, each time followed subsequently by application of compound 15 as a 1% solution. • 3. Therapy of 9-cis RA-induced skin inflammation by RXR antagonist compound 15 9-cis RA solution of 0.3% is administered twice daily from day 1 to day 14. Compound 15 as a 1% solution is administered from day 15 until disappearance of skin inflammation.
The signs and symptoms of skin inflammation are recorded on a 0-4 scale, as described in example 21. The evaluation of the anti-inflammatory effect is based on the daily determination of the inflammation score (scale 0-4).
The following parameters serve as criteria for evaluation of the effect of 9-cis RA, the preventive effect of compound 15 and the therapeutic effect of compound 15. • 1. Sum of the daily inflammation scores from day 1 to day 28. Total inflammation score. • 2. Sum of the daily inflammation scores from day 15 to disappearance of skin inflammation. • 3. Time in days from day 15 to disappearance of skin inflammation.

skin of mice = assay: Topical administration to the skin of mice (irritation); assay type: in vivo; conditions: concentrations up to 2.5%
[3] = 9-cis RA 0.1% day 1-14, followed by vehicle day 15-22
[4] = 9-cis RA 0.3% day 1-14, followed by vehicle day 15-22
[5] = 9-cis RA 1% day 1-14, followed by vehicle day 15-22
[6] = absence of IL-1β, 10^−8 M, day 7
[7] = absence of IL-1β, 10^−8 M, day 14
[8] = absence of IL-1β, 10^−8 M, day 21
[9] = absence of IL-1β, 10^−8 M, day 28
[10] = absence of IL-1β, 10^−8 M, day 35
[11] = presence of 100 pg/ml IL-1β, 10^−7 M
[12] = presence of 100 pg/ml IL-1β, 10^−8 M
[13] = presence of 100 pg/ml IL-1β, 10^−8 M, day 7
[14] = presence of 100 pg/ml IL-1β, 10^−8 M, day 14
[15] = presence of 100 pg/ml IL-1β, 10^−8 M, day 21
[16] = presence of 100 pg/ml IL-1β, 10^−8 M, day 28
[17] = presence of 100 pg/ml IL-1β, 10^−8 M, day 35
[18] = presence of 100 pg/ml IL-1β, 10^−9 M
[19] = 9-cis RA 0.3% day 1 to day 14, then vehicle
[20] = 9-cis RA 0.1% day 1-14, followed by compound 15 1% day 15-22
[21] = 9-cis RA 0.3% day 1-14, followed by compound 15 1% day 15-22
[22] = 9-cis RA 1% day 1-14, followed by compound 15 1% day 15-22
[23] = Prevention: 9-cis RA 0.3% and compound 15 1%, both day 1 to day 14
[24] = Therapy: 9-cis RA 0.3% day 1 to day 14, compound 15 1% day 15 to disappearance of inflammation

| Compound | MMP-1 mRNA, fold increase of baseline value (MMP-1 mRNA; 10^−7 M, after 24 hours) | MMP-1 mRNA, fold increase of baseline value (MMP-1 mRNA; 10^−8 M, 0 hours) | MMP-1 mRNA, fold increase of baseline value (MMP-1 mRNA; 10^−8 M, 2 hours) | MMP-1 mRNA, fold increase of baseline value (MMP-1 mRNA; 10^−8 M, 6 hours) | MMP-1 mRNA, fold increase of baseline value (MMP-1 mRNA; 10^−8 M, 12 hours) | MMP-1 mRNA, fold increase of baseline value (MMP-1 mRNA; 10^−8 M, 24 hours) | MMP-1 mRNA, fold increase of baseline value (MMP-1 mRNA; 10^−8 M, 48 hours) | MMP-1 mRNA, fold increase of baseline value (MMP-1 mRNA; 10^−8 M, after 24 hours) | MMP-1 mRNA, fold increase of baseline value (MMP-1 mRNA; 10^−9 M, after 24 hours) | Effect on cartilage destruction in vitro (in words) (synovial fibroblasts; absence of IL-1β) | sGAG release (synovial fibroblasts; absence of IL-1β, 10^−7 M) | sGAG release (synovial fibroblasts; absence of IL-1β, 10^−8 M) | Cumulative sGAG (synovial fibroblasts; [6]) | Cumulative sGAG (synovial fibroblasts; [7]) | Cumulative sGAG (synovial fibroblasts; [8]) | Cumulative sGAG (synovial fibroblasts; [9]) | Cumulative sGAG (synovial fibroblasts; [10]) | sGAG release (synovial fibroblasts; absence of IL-1β, 10^−9 M) | sGAG release (synovial fibroblasts; [11]) | sGAG release (synovial fibroblasts; [12]) | further results |
| --- | --- | --- | --- | --- | --- | --- | --- | --- | --- | --- | --- | --- | --- | --- | --- | --- | --- | --- | --- | --- | --- |
| CC1=C(/C=C/C(C)=C\C=C\C(C)=C\C(=O)O)C(C)(C)CCC1 [9-cis RA, 9-cis retinoic acid, reference compound] | 2.60 relative units | 1 relative units | 0.98 relative units | 1.31 relative units | 3.39 relative units | 3.79 relative units | 1.47 relative units | 3.39 relative units | 1.54 relative units | increases cartilage destruction in vitro in a dose-dependent manner | 189 µg/mL | 107 µg/mL | 44 µg/mL | 107 µg/mL | 206 µg/mL | 253 µg/mL | 292 µg/mL | 64 µg/mL | 221 µg/mL | 189 µg/mL | Sum of daily inflammation scores from day 15 to disappearance of inflammation [1, 3]: 6.5; Time in days from day 15 to disappearance of inflammation [1, 3]: 8 days; Sum of daily inflammation scores from day 15 to disappearance of inflammation [1, 4]: 14; Time in days from day 15 to disappearance of inflammation [1, 4]: 13 days; Sum of daily inflammation scores from day 15 to disappearance of inflammation [1, 5]: 14.5; Time in days from day 15 to disappearance of inflammation [1, 5]: 9 days; Cumulative sGAG (synovial fibroblasts; [13]): 68 µg/mL; Cumulative sGAG (synovial fibroblasts; [14]): 189 µg/mL; Cumulative sGAG (synovial fibroblasts; [15]): 330 µg/mL; Cumulative sGAG (synovial fibroblasts; [16]): 407 µg/mL; Cumulative sGAG (synovial fibroblasts; [17]): 441 µg/mL; sGAG release (synovial fibroblasts; [18]): 204 µg/mL; Sum of daily inflammation scores from day 15 to disappearance of inflammation [2, 19]: 14; Sum of daily inflammation scores, day 1 to day 28. Total inflammation score [2, 19]: 18; Time in days from day 15 to disappearance of inflammation [2, 19]: 13 days |
| CC1=C(/C=C/C2=C(/C=C/C(C)=C/C(=O)O)CCCCC2)C(C)(C)CCC1 [Compound 1, (2E,4E)-3-methyl-5-[2-[(E)-2-(2,6,6-trimethyl-1-cyclohexen-1-yl)ethenyl]-1-cyclohepten-1-yl]-2,4-pentadienoic acid] |  |  |  |  |  |  |  |  |  |  |  |  |  |  |  |  |  |  |  |  | Irritation or inflammation of the skin (skin of mice): does not lead to irritation or inflammation of the skin |
| CCCCOc1c(\C(C)=C/C=C/C(C)=C/C(=O)O)cc(C(C)(C)C)cc1C(C)(C)C [Compound 15, (2E,4E,6Z)-7-[2-butoxy-3,5-bis(1,1-dimethylethyl)phenyl]-3-methyl-2,4,6-octatrienoic acid] | 0.68 relative units | 1 relative units | 1.13 relative units | 0.81 relative units | 1.12 relative units | 0.87 relative units | 0.83 relative units | 1.12 relative units | 1.05 relative units | no effect on the basal activity of synovial fibroblast | 39 µg/mL | 57 µg/mL | 44 µg/mL | 57 µg/mL | 57 µg/mL | 39 µg/mL | 34 µg/mL | 46 µg/mL | 41 µg/mL | 89 µg/mL | Irritation or inflammation of the skin (skin of mice): does not lead to irritation or inflammation of the skin; Sum of daily inflammation scores from day 15 to disappearance of inflammation [1, 20]: 2.5; Time in days from day 15 to disappearance of inflammation [1, 20]: 3 days; Sum of daily inflammation scores from day 15 to disappearance of inflammation [1, 21]: 5.5; Time in days from day 15 to disappearance of inflammation [1, 21]: 6 days; Sum of daily inflammation scores from day 15 to disappearance of inflammation [1, 22]: 11; Time in days from day 15 to disappearance of inflammation [1, 22]: 8 days; Cumulative sGAG (synovial fibroblasts; [13]): 67 µg/mL; Cumulative sGAG (synovial fibroblasts; [14]): 89 µg/mL; Cumulative sGAG (synovial fibroblasts; [15]): 89 µg/mL; Cumulative sGAG (synovial fibroblasts; [16]): 173 µg/mL; Cumulative sGAG (synovial fibroblasts; [17]): 56 µg/mL; sGAG release (synovial fibroblasts; [18]): 144 µg/mL; Effect on cartilage destruction in vitro (in words) (synovial fibroblasts; presence of IL-1β): markedly inhibits the IL-1β dependent cartilage destruction; Sum of daily inflammation scores from day 15 to disappearance of inflammation [2, 23]: 5; Sum of daily inflammation scores, day 1 to day 28. Total inflammation score [2, 23]: 11; Time in days from day 15 to disappearance of inflammation [2, 23]: 6 days; Sum of daily inflammation scores from day 15 to disappearance of inflammation [2, 24]: 5; Sum of daily inflammation scores, day 1 to day 28. Total inflammation score [2, 24]: 9; Time in days from day 15 to disappearance of inflammation [2, 24]: 6 days |
